Measurements taken from patent US20180161461A1, “Rare Earth Oxide Particles and Use Thereof in Particular In Imaging” (Ecole Polytechnique, priority 2012, published 2018).

What was measured:
[1] = proton resonance frequency 20 MHz, available temperature closest to 37° C.; cited from earlier work
[2] = logarithmic dissociation constant for the Gd-ligand complexes (GdL); cited from earlier work
[3] = Measurement of relaxation time / relaxivity, Bruker minispec relaxometer; format: physicochemical; conditions: relaxivity per Gd ion, 20 MHz, 37° C., ultrapure water
Protocol: The relaxation times relating to the particles obtained were measured on a Bruker minispec NMS 120 relaxometer (Bruker, Rheinstetten, Germany) operating at a proton resonance frequency of ω/2π=20 MHz and a temperature of 37° C. In order to avoid any confusion between angular frequency ω and the frequency v, here, all of the frequencies given in Hz correspond to ω/2π=v. The spectrometer was calibrated using standard water/oil mixtures with known component ratios, in accordance with the manufacturer's instructions. The pre-diluted samples were further diluted directly in 10 mm NMR (nuclear magnetic resonance) tubes using a series containing 10×1 mL samples. All of the dilutions were made using ultrapure water. The tubes were sealed and placed in a water bath at 37° C. for at least 10 minutes before measurement, The relaxation times T1 were determined by using the inversion-recovery pulse sequence with a repetition time TR=5 s. […] In general, 100 echoes with an echo time TE between 0.5 and 2 ms depending on the concentration of the sample were recorded. […]
The relaxivities per particle were determined by firstly calculating the volume of a particle. To this end, the nanoparticles were assumed to be homogeneous in dimension and spherical with a diameter equal to the number average diameter determined by DLS (dynamic light scattering). […]

| Compound | r1 [1] [mM⁻¹ s⁻¹] | pKGdL [2] | r1^ion [3] [mM⁻¹ s⁻¹] |
| --- | --- | --- | --- |
| O=C([O-])CN1CCN(CC(=O)[O-])CCN([C@H](CO)[C@H](O)CO)CCN(CC(=O)[O-])CC1.[Gd+3] (racemic) [Gadovist] | 4.8 | 21.1 |  |
| O=C([O-])CN(CCN(CC(=O)[O-])CC(COP(=O)([O-])OC1CCC(c2ccccc2)(c2ccccc2)CC1)N(CC(=O)[O-])CC(=O)[O-])CC(=O)[O-].[Gd+3].[Na+].[Na+].[Na+] (stereo not drawn) [Ablavar] |  | 6.6 |  |
| CCOc1ccc(CC(CN(CCN(CC(=O)[O-])CC(=O)[O-])CC(=O)[O-])N(CC(=O)[O-])CC(=O)[O-])cc1.[Gd+3].[Na+].[Na+] (stereo not drawn) [Eovist] | 5.4 |  |  |
| [Cl][Gd]([Cl])[Cl] [GdCl3] |  |  | 10.4 |
| CNC[C@H](O)[C@@H](O)[C@H](O)[C@H](O)CO.CNC[C@H](O)[C@@H](O)[C@H](O)[C@H](O)CO.O=C([O-])CN(CCN(CC(=O)[O-])CC(=O)O)CCN(CC(=O)[O-])CC(=O)O.[Gd+3] [Magnevist] | 3.8 | 22.5 |  |
| CNC[C@H](O)[C@@H](O)[C@H](O)[C@H](O)CO.CNC[C@H](O)[C@@H](O)[C@H](O)[C@H](O)CO.O=C([O-])CN(CCN(CC(=O)[O-])CC(=O)O)CCN(CC(=O)O)C(COCc1ccccc1)C(=O)[O-].[Gd+3] (stereo not drawn) [MultiHance] | 4.39 | 22.6 |  |
| CNC(=O)CN(CCN(CCN(CC(=O)[O-])CC(=O)NC)CC(=O)[O-])CC(=O)[O-].[Gd+3] [Omniscan] | 3.96 | 16.9 |  |
| COCCNC(=O)CN(CCN(CCN(CC(=O)[O-])CC(=O)NCCOC)CC(=O)[O-])CC(=O)[O-].[Gd+3] [OptiMark] | 4.7 | 16.8 |  |
| CC(O)CN1CCN(CC(=O)[O-])CCN(CC(=O)[O-])CCN(CC(=O)[O-])CC1.[Gd+3] (stereo not drawn) [Prohance] | 3.7 | 23.8 |  |
